Assay results from patent US20240374635A1, “COMPOSITIONS AND METHODS” (Glasport Bio Limited, priority 2021, published 2024).
Where two headings read alike, the source gives them in different places.

Legend:
[1] = tested on: cattle; assay: In vivo rumen ORP in cattle with ORP measurement bolus
Procedure: Experimental: An in vivo study was conducted to investigate the effect of feed additives of the invention on rumen ORP in cattle. The study involved administering an ORP measurement bolus to each cow to allow for an ORP reading to be recorded every 10 minutes, dividing the cattle into three groups: a control group (receiving feed without any feed additive of the invention), low dose (receiving 100 g CaO2 per day along with feed—with the additive being delivered at a single morning feeding) and a high dose group (receiving 200 g CaO2 per day along with feed—with the additive being delivered at a single morning feeding). The rumen was opened after approximately 450 hours.
The results of this study are given in FIG. 20 which charts the ORP level in the rumen (mV) over time measured at 10-minute intervals for the control group, the low-dose group, and the high-dose group respectively.
An average baseline ORP reading measured for the animals from the control group is about −440 mV. This average baseline ORP reading of about −440 mV may be useful to aid comparison between control ORP and increases in ORP due to the animals consuming the additive. After approximately 450 hours the rumen was opened and the ORP results after this time point should be disregarded.

[2] = tested on: adult ewes
Procedure: A methane emission study was carried out to determine the impact of feeding different doses of the feed additive would have on enteric fermentation. […] Any refused concentrate/additive was recorded. Sheep then had ad libitum access to grass silage and water throughout the day, with the amount of silage eaten recorded for each animal.
Body weights of all animals were recorded at the start of the experiment (‘week 1’) and after 49 days (‘week 7’).
Methane emissions were recorded through use of Portable Accumulation Chambers (PAC). Briefly: these are sealed chambers in which individual animals remain for a 1 hour time period. During this time period methane, oxygen and carbon dioxide measurements are taken at 0 minutes, 25 minutes and 50 minutes. […] Animals were placed in the PAC on week 1 and […] as defined above. 12 adult ewes, at least 2 years old, were divided into 2 groupings of 6 sheep. One group received a 2.355 g dose of Urea-Hydrogen Peroxide (termed Group 1) per day and the other received a 4.71 g dose of Urea-Hydrogen Peroxide (termed Group 2) per day.
Control Group: Sheep were fed 0.5 kg of feed concentrate comprising animal feed, on a daily basis over a 7 week period.
Treatment Group 1 (UHP 0.5X): Sheep were fed 0.5 kg of feed concentrate comprising the same animal feed as the control group and 0.15% (by weight) of urea hydrogen peroxide, on a daily basis over a 7 week period.
Treatment Group 2 (UHP 1X): Sheep were fed 0.5 kg of feed concentrate comprising the same animal feed as the control group and 0.3% (by weight) of urea hydrogen peroxide, on a daily basis over a 7 week period.

[3] = for Average Weight Gain: day 1 to day 49; for Average Daily DMI: group average; for Gain:Feed Ratio: group basis; for Average Finishing Weight / Average Starting Weight: group of 20 sheep
Procedure: Experimental: A study was conducted to determine what impact consumption of the feed additives would have on animal performance. It is estimated that between 2-12% of the energy content of animal feed is lost through enteric fermentation. This study examined whether though potential reductions in enteric fermentation additional energy would be diverted to the animal, with this being seen via an improved feed:gain metric, that is the ability of the animal to improve the rate of increase in its body weight per unit of feed eaten. 60 adult ewes (average starting body weight of approximately 80 kg) were divided into 3 equal groups of 20 sheep per group. Animals were fed as described in the Animal Study—Methane Emissions above. Animals were grouped into a control group (no feed additive given); treatment group 1 (2.355 g Urea-Hydrogen Peroxide given daily); treatment group 2 (4.71 g Urea-Hydrogen Peroxide given daily).
Animals were weighed at the start of the experiment (day 1) and at the end of the study (day 49). All feed (DMI) consumed was weighed and recorded throughout the study.
A feed:gain ratio was calculated as follows: […]
The ratio of weight gain to DMI was then calculated to determine the feed efficiency of each animal.

[4] = Treatment Group 1, 2.355 g UHP per day
[5] = Treatment Group 1, 2.355 g UHP per day, Week 1
[6] = Treatment Group 1, 2.355 g UHP per day, Week 7
[7] = Treatment Group 2, 4.71 g UHP per day
[8] = Treatment Group 2, 4.71 g UHP per day, Week 1
[9] = Treatment Group 2, 4.71 g UHP per day, Week 7

[Ca+2].[O-][O-] [CaO2, calcium peroxide]
increase of ORP in the rumen after each morning feed ([1]; 100 g or 200 g CaO2 per day with feed, sustained period of at least one hour): at least +100 mV | initial period (correction phase) of the ORP profile ([1]; 100 g or 200 g CaO2 per day, temporary reductions below baseline between administrations): 300 to 350 h

NC(N)=O.OO [urea hydrogen peroxide]
CH4/BW Difference week 7 versus week 1 [2, 4]: 11.24% | CH4/day Difference week 7 versus week 1 [2, 4]: 5.828% | CH4/BW (group mean) [2, 5]: 0.3705 litres of methane per kg of animal body weight | CH4/day (group mean) [2, 5]: 29.32 | CH4/BW (group mean) [2, 6]: 0.3288 litres of methane per kg of animal body weight | CH4/day (group mean) [2, 6]: 27.61 | CH4/BW Difference week 7 versus week 1 [2, 7]: 22.61% | CH4/day Difference week 7 versus week 1 [2, 7]: 18.04% | CH4/BW (group mean) [2, 8]: 0.3753 litres of methane per kg of animal body weight | CH4/day (group mean) [2, 8]: 29.82 | CH4/BW (group mean) [2, 9]: 0.2905 litres of methane per kg of animal body weight | CH4/day (group mean) [2, 9]: 24.44 | methane production by week 7 ([2]; treatment groups, feed concentrate comprising urea hydrogen peroxide): significant decrease in methane production | Average Weight Gain ([3]; Treatment 1, 2.355 g UHP daily): 5.65 kg | Average Daily DMI ([3]; Treatment 1, 2.355 g UHP daily): 1.6345 kg | Gain:Feed Ratio ([3]; Treatment 1, 2.355 g UHP daily): 0.0864 | Average Finishing Weight ([3]; Treatment 1, 2.355 g UHP daily): 82.55 kg | Average Starting Weight ([3]; Treatment 1, 2.355 g UHP daily): 76.9 kg | Average Weight Gain ([3]; Treatment 2, 4.71 g UHP daily): 6.325 kg | Average Daily DMI ([3]; Treatment 2, 4.71 g UHP daily): 1.516 kg | Gain:Feed Ratio ([3]; Treatment 2, 4.71 g UHP daily): 0.1043 | Average Finishing Weight ([3]; Treatment 2, 4.71 g UHP daily): 81.275 kg | Average Starting Weight ([3]; Treatment 2, 4.71 g UHP daily): 74.95 kg | weight gain versus control group ([3]; treatment groups): gained more weight on average than the control group
